Biological target: T1, Human M4 (Homo sapiens, UniProt P08173)
T1 construct: Human or rat M4 cDNA, along with the chimeric G protein Gqi5, were transfected into Chinese hamster ovary (CHO-K1) cells; expressed in transfected cells; host or cells: CHO-K1 (Chinese hamster ovary, ATCC), stably co-expressing Gqi5
T1 sequence (P08173 1-479): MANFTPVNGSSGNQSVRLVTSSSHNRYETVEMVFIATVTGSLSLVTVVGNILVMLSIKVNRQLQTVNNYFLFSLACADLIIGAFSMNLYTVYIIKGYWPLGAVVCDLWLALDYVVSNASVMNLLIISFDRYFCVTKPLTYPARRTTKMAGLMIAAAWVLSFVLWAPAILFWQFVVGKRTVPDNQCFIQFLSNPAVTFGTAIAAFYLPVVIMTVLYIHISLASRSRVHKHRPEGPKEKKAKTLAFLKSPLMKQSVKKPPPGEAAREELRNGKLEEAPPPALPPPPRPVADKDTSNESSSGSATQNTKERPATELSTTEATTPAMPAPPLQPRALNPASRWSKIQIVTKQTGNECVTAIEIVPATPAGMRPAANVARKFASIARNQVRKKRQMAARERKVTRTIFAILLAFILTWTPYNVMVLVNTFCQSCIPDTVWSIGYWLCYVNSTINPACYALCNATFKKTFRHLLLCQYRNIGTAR
Test: mAChR M4 cell-based functional assay (calcium flux, decrease of EC80 acetylcholine response)
Settings: for remaining activity at 30 µM: read-out: Human M4 Emin; for IC50: M4/Gqi5/CHO-K1 cells, decrease of response to EC80 acetylcholine
Method: Human or rat M4 cDNA, along with the chimeric G protein Gqi5, were transfected into Chinese hamster ovary (CHO-K1) cells purchased from the American Type Culture Collection using Lipofectamine2000. M4/Gqi5/CHO cells were grown in Ham's F-12 medium containing 10% heat-inactivated fetal bovine serum (FBS), 20 mM HEPES, 500 μg/mL G418 sulfate, and 200 μg/mL Hygromycin B.
For high throughput measurement of agonist-evoked increases in intracellular calcium, CHO-K1 cells stably expressing muscarinic receptors were plated in growth medium lacking G418 and hygromycin at 15,000 cells/20 μL/well in Greiner 384-well black-walled, tissue culture (TC)-treated, clear-bottom plates (VWR). Cells were incubated overnight at 37° C. and 5% CO2. The next day, cells were washed using an ELX 405 (BioTek) with assay buffer; the final volume was then aspirated to 20 μL. Next, 20 μL of a 2.3 μM stock of Fluo-4/acetoxymethyl ester (Invitrogen, Carlsbad, Calif.), prepared as a 2.3 mM stock in DMSO and mixed in a 1:1 ratio with 10% (w/v) Pluronic F-127 and diluted in assay buffer, was added to the wells and the cell plates were incubated for 50 min at 37° C. and 5% CO2. Dye was removed by washing with the ELX 405 and the final volume was aspirated to 20 μL. Compound master plates were formatted in a 10 point concentration-response curve (CRC) format (1:3 dilutions) in 100% DMSO with a starting concentration of 10 or 1 mM using a BRAVO liquid handler (Agilent). Test compound CRCs were then transferred to daughter plates (240 nL) using the Echo acoustic plate reformatter (Labcyte, Sunnyvale, Calif.) and then diluted into assay buffer (40 μL) to a 2×stock using a Thermo Fisher Combi (Thermo Fisher Scientific, Waltham, Mass.).
Calcium flux was measured using the Functional Drug Screening System (FDSS) 6000 or 7000 (Hamamatsu Corporation, Tokyo, Japan) as an increase in the fluorescent static ratio. Compounds were applied to cells (20 μL, 2×) using the automated system of the FDSS at 2 seconds into the protocol and the data were collected at 1 Hz. At 143 s, 10 μL of an EC20 concentration of the muscarinic receptor agonist acetylcholine was added (5×), followed by the addition of 12 μL of an EC80 concentration of acetylcholine at the 268 s time point (5×). Agonist activity was analyzed as a concentration-dependent increase in calcium mobilization upon compound addition. Positive allosteric modulator activity was analyzed as a concentration-dependent increase in the EC20 acetylcholine response. Antagonist activity was analyzed as a concentration-dependent decrease in the EC80 acetylcholine response; for the purposes of the tables herein, an IC50 (inhibitory concentration 50) was calculated as a concentration-dependent decrease of the response elicited by an EC80 concentration of acetylcholine. Concentration-response curves were generated using a four-parameter logistical equation in XLFit curve fitting software (IDBS, Bridgewater, N.J.) for Excel (Microsoft, Redmond, Wash.) or Prism (GraphPad Software, Inc., San Diego, Calif.) or the Dotmatics software platform (Dotmatics, Bishop's Stortford, UK).
Compounds were synthesized as described above. Activity (IC50 and Emin) was determined in the mAChR M4 cell-based functional assay as described above and the data are shown in Table 2.

SMILES | remaining activity at 30 µM (% ACh maximum at 30 μM) [%] | IC50 [nM] | Human M4 Emin (% ACh maximum at 30 μM) [%]
[2H]C([2H])(C1CCOCC1)N1C[C@H]2C[C@H](Nc3nnc(-c4ccccc4OC)cc3C(F)(F)F)C[C@H]2C1 [Example 107, (3aR,5s,6aS)-N-(6-(2-methoxyphenyl)-4-(trifluoromethyl)pyridazin-3-yl)-2-((tetrahydro-2H-pyran-4-yl)methyl-d2)octahydro-cyclopenta[c]pyrrol-5-amine] | 3 | 26.4 | 
[2H]C([2H])(C1CCOCC1)N1C[C@H]2C[C@H](Nc3nnc(-c4ccc(C)cc4C)cc3C(F)(F)F)C[C@H]2C1 [Example 126, (3aR,5s,6aS)-N-(6-(2,4-dimethyl-phenyl)-4-(trifluoro-methyl)pyridazin-3-yl)-2-((tetrahydro-2H-pyran-4-yl)methyl-d2)octahydro-cyclopenta[c]pyrrol-5-amine] | 3 | 94.2 | 
Cc1cc(-c2cc(C(F)(F)F)c(N[C@H]3C[C@@H]4CN(CC5CCOCC5)C[C@@H]4C3)nn2)c(F)cc1F [Example 92, (3aR,5s,6aS)-N-(6-(2,4-difluoro-5-methylphenyl)-4-(trifluoromethyl)pyridazin-3-yl)-2-((tetrahydro-2H-pyran-4-yl)methyl)octahydro-cyclopenta[c]pyrrol-5-amine] | 2 | 338 | 
Cc1cc(F)c(F)c(-c2cc(C(F)(F)F)c(N[C@H]3C[C@@H]4CN(CC5CCOCC5)C[C@@H]4C3)nn2)c1 [Example 93, (3aR,5s,6aS)-N-(6-(2,3-difluoro-5-methylphenyl)-4-(trifluoromethyl)pyridazin-3-yl)-2-((tetrahydro-2H-pyran-4-yl)methyl)octahydro-cyclopenta[c]pyrrol-5-amine] | 3 | 172 | 
Cc1ccc(F)cc1-c1cc(C#N)c(N[C@H]2C[C@@H]3CN(C[C@@H]4CCOC4)C[C@@H]3C2)nn1 [Example 151, 6-(5-fluoro-2-methylphenyl)-3-(((3aR,5s,6aS)-2-(((S)-tetrahydrofuran-3-yl)methyl)octahydro-cyclopenta[c]pyrrol-5-yl)amino)pyridazine-4-carbonitrile] | 7 | 105 | 
Cc1ccc(F)cc1-c1cc(C(F)(F)F)c(N[C@H]2C[C@@H]3CN(CC4CCCCO4)C[C@@H]3C2)nn1 (single isomer, unassigned) [Example 119] |  | 14 | 3
Fc1ccc(C2CC2)cc1-c1cc(C(F)(F)F)c(N[C@H]2C[C@@H]3CN(CC4CCOCC4)C[C@@H]3C2)nn1 [Example 94, (3aR,5s,6aS)-N-(6-(5-cyclopropyl-2-fluorophenyl)-4-(trifluoromethyl)pyridazin-3-yl)-2-((tetrahydro-2H-pyran-4-yl)methyl)octahydro-cyclopenta[c]pyrrol-5-amine] | 3 | 1330 | 
Cn1ncc2cc(-c3cc(C(F)(F)F)c(N[C@H]4C[C@@H]5CN(CC6CCOCC6)C[C@@H]5C4)nn3)ccc21 [Example 75, (3aR,5s,6aS)-N-(6-(1-methyl-1H-indazol-5-yl)-4-(trifluoromethyl)pyridazin-3-yl)-2-((tetrahydro-2H-pyran-4-yl)methyl)octahydro-cyclopenta[c]pyrrol-5-amine] | 3 | 45.1 | 
Cn1cc2cc(-c3cc(C#N)c(N[C@H]4C[C@@H]5CN(C[C@@H]6CCOC6)C[C@@H]5C4)nn3)ccc2n1 [Example 154, 6-(2-methyl-2H-indazol-5-yl)-3-(((3aR,5s,6aS)-2-(((S)-tetrahydrofuran-3-yl)methyl)octahydro-cyclopenta[c]pyrrol-5-yl)amino)pyridazine-4-carbonitrile] | 15 | 87.8 | 
Fc1ccccc1-c1cc(C(F)(F)F)c(N[C@H]2C[C@@H]3CN(Cc4ccccn4)C[C@@H]3C2)nn1 [Example 101, (3aR,5s,6aS)-N-(6-(2-fluorophenyl)-4-(trifluoro-methyl)pyridazin-3-yl)-2-(pyridin-2-ylmethyl)octahydro-cyclopenta[c]pyrrol-5-amine] | 3 | 674 | 
Cc1ccc(-c2cc(C(F)(F)F)c(N[C@H]3C[C@@H]4CN(CC5CCOCC5)C[C@@H]4C3)nn2)c(F)c1 [Example 79, (3aR,5s,6aS)-N-(6-(2-fluoro-4-methylphenyl)-4-(trifluoromethyl)pyridazin-3-yl)-2-((tetrahydro-2H-pyran-4-yl)methyl)octahydro-cyclopenta[c]pyrrol-5-amine] | 3 | 349 | 
CC(C)c1ccc(F)c(-c2cc(C(F)(F)F)c(N[C@H]3C[C@@H]4CN(CC5CCOCC5)C[C@@H]4C3)nn2)c1 [Example 96, (3aR,5s,6aS)-N-(6-(2-fluoro-5-isopropylphenyl)-4-(trifluoromethyl)pyridazin-3-yl)-2-((tetrahydro-2H-pyran-4-yl)methyl)octahydro-cyclopenta[c]pyrrol-5-amine] | 3 | 2040 | 
Cc1ccc(-c2cc(C(F)(F)F)c(N[C@H]3C[C@@H]4CN(CC5CCOCC5)C[C@@H]4C3)nn2)c(C)c1 [Example 59, (3aR,5s,6aS)-N-(6-(2,4-dimethylphenyl)-4-(trifluoromethyl)pyridazin-3-yl)-2-((tetrahydro-2H-pyran-4-yl)methyl)octahydro-cyclopenta[c]pyrrol-5-amine] | 3 | 67.7 | 
Cc1ccc(F)cc1-c1cc(C#N)c(N[C@H]2C[C@@H]3CN(C[C@H]4CC5CCC4O5)C[C@@H]3C2)nn1 (stereo partly drawn) [Example 148, 3-(((3aR,5s,6aS)-2-(((2R)-7-oxabicyclo[2.2.1]heptan-2-yl)methyl)octahydro-cyclopenta[c]pyrrol-5-yl)amino)-6-(5-fluoro-2-methylphenyl)pyridazine-4-carbonitrile] | 2 | 1.1 | 
Cc1ccc(F)cc1-c1cc(C(F)(F)F)c(N[C@H]2C[C@@H]3CN(CC4(F)CCOCC4)C[C@@H]3C2)nn1 [Example 23, (3aR,5s,6aS)-N-(6-(5-fluoro-2-methylphenyl)-4-(trifluoromethyl)pyridazin-3-yl)-2-((4-fluorotetrahydro-2H-pyran-4-yl)methyl)octahydro-cyclopenta[c]pyrrol-5-amine] | 3 | 23.7 | 
Cn1cc2cc(-c3cc(C(F)(F)F)c(N[C@H]4C[C@@H]5CN(Cc6ccccn6)C[C@@H]5C4)nn3)ccc2n1 [Example 106, (3aR,5s,6aS)-N-(6-(2-methyl-2H-indazol-5-yl)-4-(trifluoromethyl)pyridazin-3-yl)-2-(pyridin-2-ylmethyl)octahydro-cyclopenta[c]pyrrol-5-amine] | 4 | 274 | 

Source: patent US20230183219A1, “CONDENSED SUBSTITUTED HYDROPYRROLES AS ANTAGONISTS OF THE MUSCARINIC ACETYLCHOLINE RECEPTOR M4” (Vanderbilt University, priority 2020, published 2023)
